Measurements from patent US9127233B2, “Device and method for solubilizing, separating, removing and reacting carboxylic acids in oils, fats, aqueous or organic solutions by means of micro-or nanoemulsification” (priority 2010, dated 2015).
Structures can show the parent of a compound that is named as a salt. Where two headings read alike, the source gives them in different places. Blank lines part the entries; values can stand above or below the compound they belong to. Where a SMILES comes first, the peptide text is derived from it.

Legend:
[1] = cited from earlier work
[2] = Dynamic laser light scattering (DLS) of oleic acid micro-/nanoemulsions; format: physicochemical; settings: for Mean Size by Intensity: DLS, emulsion with oleic acid; for Part: percentage of the peak in the sample
Method: (§1) The solutions were rested for 1 h and pH was measured. In case of incomplete dissolution and a pH below 7 a 1M NaOH solution was added dropwise until turbidity resolved. Then the mixtures were stirred or shaken. In order to assess the stability of the obtained micro or nanoemulsion, the solution were heated for 1 hour to 60° C. and cooled to room temperature. An other part of the clear solution was stored over night at 4° C. and then rewarmed to room temperature. Thereafter solutions were analysed for solid formation, residual oil, viscosity, turbidity, and DLS measurements were performed.
For DLS measurements a Zetasizer Nano S from Malvern (USA) was used. All measurements were repeated three times undiluted, or 1:10 and 1:100 diluted by water. For the measurements the viscosity of water and the refractory index of water were used.
Peak Maximum by Intensity: Size is directly determined from the measurement without a weighting of volume or particle number.
Peaks are presented corresponding to their percentage in the sample.
Ratio of peak maxima: Percentual distribution of particle sizes.

[3] = molecular target: fatty acids bound to albumin (Homo sapiens, UniProt P02768); assay: Liberation of 3H-labeled oleic acid bound to albumin, extraction with n-hexane; settings: identical procedure
Sequence of fatty acids bound to albumin (P02768 25-609): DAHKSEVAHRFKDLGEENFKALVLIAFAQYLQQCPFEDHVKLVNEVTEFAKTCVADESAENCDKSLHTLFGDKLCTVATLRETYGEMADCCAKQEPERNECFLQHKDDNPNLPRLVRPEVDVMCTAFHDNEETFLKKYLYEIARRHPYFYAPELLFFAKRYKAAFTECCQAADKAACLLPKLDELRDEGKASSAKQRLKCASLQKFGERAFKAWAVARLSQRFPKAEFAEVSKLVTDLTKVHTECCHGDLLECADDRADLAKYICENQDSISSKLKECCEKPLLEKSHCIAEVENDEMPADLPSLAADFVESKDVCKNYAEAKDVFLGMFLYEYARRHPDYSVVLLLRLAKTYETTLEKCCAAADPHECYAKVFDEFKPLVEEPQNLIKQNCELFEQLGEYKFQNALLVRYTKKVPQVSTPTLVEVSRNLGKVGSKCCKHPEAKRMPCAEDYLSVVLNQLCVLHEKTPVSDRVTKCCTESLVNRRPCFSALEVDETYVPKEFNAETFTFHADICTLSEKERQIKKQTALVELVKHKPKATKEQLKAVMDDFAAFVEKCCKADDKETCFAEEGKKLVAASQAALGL
From the text: The capacity of arginine to liberate fatty acids bound to albumin was investigated by ^3H-labeled oleic acid.

[4] = pH of aqueous solution of solubilizing compound mixed with oleic acid; format: physicochemical; settings: solubilizing compound in water with 0.833 mol equivalents of oleic acid
Method: (§2) In the following tests oleic acid was mixed with the test substances in H2O, Subsequently, log P and pH were measured and the solubility of the test substance in H2O was estimated together with an estimation of the interaction between oleic acid and the test substance according to the scheme shown below.
The solutions were rested for 1 h and pH was measured. In case of incomplete dissolution and a pH below 7 a 1M NaOH solution was added dropwise until turbidity resolved. Then the mixtures were stirred or shaken.

[5] = Estimation of the interaction between oleic acid and the test substance; format: physicochemical
Method: Several solubilizing compounds were tested in aqueous medium for their potential to solubilize a reference fatty acid, namely oleic acid.
as §2, §1
Estimation of the Interaction Between Oleic Acid and the Test Substance: • X=Interaction between oleic acid and the test substance • (X)=Interaction between oleic acid and test substance.

[6] = log P of the test substance
Method: as §2

[7] = Estimation of solubility of the test substance in H2O; format: physicochemical
Method: as §2, §1
Estimation of Solubility: • X=Compound is completely dissolved • (X)=Compound is partially dissolved • ((X))=Compound is not dissolved (visual appearance) but there is a change in pH. Therefore it is assumed that at least a small part is dissolved. • −=insoluble

[8] = Influence of the pH on the solubility of oleic acid in aqueous medium; format: physicochemical
Method: At the beginning the influence of the pH on the solubility of oleic acid in aqueous medium was tested. These tests were conducted in order to exclude the possibility that the observed solubility of oleic acid was due to pH changes and not primarily because of the interaction of functional groups.

[9] = cited from earlier work; remark: listed apart in the source
[10] = n-octanol and water; cited from earlier work
[11] = water (H2O), test substance mixed with oleic acid

Method for physchem: as §2

Compound: NCCCC[C@H](N)C(=O)O [L-Lysine]
Mean Size by Intensity [2]: 133 nm
Part [2]: 95.6%
reduction of residual fatty acids as compared to arginine [3]: significantly less
pH [4]: 9.56
Interaction with Oleic Acid [5]: X, E
logP [6, 11]: -3.42

Compound: CCCCCCCC/C=C\CCCCCCCC(=O)O [oleic acid, cis-9-octadecenoic acid]
solubility of oleic acid in aqueous medium ([8]; pH 14): formation of a solid precipitate
solubility of oleic acid in aqueous medium ([8]; pH range of 9-12 at room temperature): no interaction
solubility of oleic acid in aqueous medium ([8]; starting at pH 13): begins to dissolve

Compound: [Co+2].c1ccc2c(c1)-c1nc-2nc2[n-]c(nc3nc(nc4[n-]c(n1)c1ccccc41)-c1ccccc1-3)c1ccccc21 [co-phthalocyanine]
mg soluble in water [9]: unsoluble

Compound: CCCCCCCC(=O)O [octanoic acid]
log KOW [10]: 3.05

Compound: CN/C(=N\[N+](=O)[O-])NCc1cnc(Cl)s1 [Clothianidine, (E)-1-(2-chlor-1,3-thiazol-5-ylmethyl)-3-methyl-2-nitroguanidine]
Mean Size by Intensity [2]: 153 nm
Part [2]: 53.9%
pH [4]: 9.81
Dissolved (H2O) [7]: (X)
Interaction with Oleic Acid [5]: X, E
logP [6]: -2.03

Compound: Cl.N=C(N)Nc1ccc(C(=O)O)cc1 [4-Guanidinobenzoic acid hydrochloride]
pH [4]: 11.19
Dissolved (H2O) [7]: (X)
Interaction with Oleic Acid [5]: X, E
logP [6, 11]: 0.604

Compound: Cc1ccccc1NC(=N)NC(=N)N [1-(o-Tolyl)biguanide]
Mean Size by Intensity [2]: 850 nm
Part [2]: 95.5%
pH [4]: 11.53
Dissolved (H2O) [7]: (X)
Interaction with Oleic Acid [5]: X, E
logP [6, 11]: 1.41

Compound: [H]/N=C(\N/C(=N/[H])Nc1ccc(Cl)cc1)NC(C)C [Proguanil hydrochloride, 1-(4-chlorphenyl)-5-isopropylbi-guanide, reference compound]
pH [4]: 7.66
Dissolved (H2O) [7]: (X)
Interaction with Oleic Acid [5]: X, E
logP [6, 11]: 2.53

Compound: CO/C=C(/C(=O)OC)c1ccccc1Oc1cc(Oc2ccccc2C#N)ncn1 [azoxystrobin]
mg soluble in water [9]: 6.7 mg/L

Compound: sudan red
mg soluble in water [9]: unsoluble

Compound: C1=Cc2nc1c(-c1ccccc1)c1nc(c(-c3ccccc3)c3ccc([nH]3)c(-c3ccccc3)c3ccc([nH]3)c2-c2ccccc2)C=C1 [tetraphenylporphyrin]
mg soluble in water [9]: 2 mg/L

Compound: NCC(=O)N[C@@H](Cc1c[nH]cn1)C(=O)O [Gly-His] (H-Gly-His-OH; N-terminus and C-terminus assumed)
logP: -2.42

Compound: Cl.N[C@@H](Cc1c[nH]cn1)C(=O)O.O [Histidine hydrochloride monohydrate]
Mean Size by Intensity [2]: 647 nm
Part [2]: 81.9%
reduction of residual fatty acids as compared to arginine [3]: significantly less
logP (physchem): -4.37
pH [4]: 9.30
Interaction with Oleic Acid [5]: X, E

Now from value to compound, other results behind:

logP (physchem): -3.52
Compound: N=C(N)NCCCC(N)C(=O)O [L-Arginine, 2-amino-5-guanidinopentanoic acid]
pKa ([1]; amino group): 8.99
pKa ([1]; carboxyl group): 1.82

logP: -5.06
Compound: N=C(N)NCCC[C@H](NC(=O)CN)C(=O)O [Gly-Arg] (H-Gly-Arg-OH; N-terminus and C-terminus assumed)

reduction of residual fatty acids as compared to arginine [3]: significantly less
logP (physchem): -2.05
pH [4]: 8.37
Dissolved (H2O) [7]: (X)
Interaction with Oleic Acid [5]: ((X))
Compound: NC(=O)CC[C@H](N)C(=O)O [L-Glutamin, reference compound]

logP: -5.06
Compound: NCCCC[C@H](N)C(=O)N[C@@H](CCCN=C(N)N)C(=O)O [Lys-Arq acetate] (H-Lys-Arg-OH)

logP: -5.74
Compound: N=C(N)NCCC[C@H](NC(=O)[C@@H](N)Cc1c[nH]cn1)C(=O)O [His-Arg] (H-His-Arg-OH; N-terminus and C-terminus assumed)

logP: -3.98
Compound: C[C@@H](O)[C@H](N)C(=O)N[C@@H](CCCCN)C(=O)N1CCC[C@H]1C(=O)N[C@@H](CCCNC(=N)N)C(=O)O [Thr-Lys-Pro-Arq (Tuftsin)] (H-TKPR-OH; N-terminus and C-terminus assumed)

pH [4]: 9.01
Dissolved (H2O) [7]: (X)
Interaction with Oleic Acid [5]: (X), E
logP [6, 11]: -3.6
Compound: N=C(N)NCCCCCC(=O)O [6-Guanidinohexanoic acid]

logP: -3.6
Compound: C[C@H](NC(=O)[C@H](Cc1ccccc1)NC(=O)[C@@H](N)CCCNC(=N)N)C(=O)O [Arg-Phe-Ala acetate] (H-Arg-Phe-Ala-OH; N-terminus and C-terminus assumed)

reduction of residual fatty acids as compared to arginine [3]: significantly less
Compound: NC(=O)C[C@H](N)C(=O)O [asparagine, reference compound]
